Test [1] concerns NCI-H157. The test is described as follows: Antiproliferative activity against human NCI-H157 cells assessed as reduction in cell viability measured after 72 hrs by sulforhodamine B assay. Format: functional, cell-based. Conditions: NCI-H157, 72 h.
Test [2] relates to A549. The test is described as follows: Antiproliferative activity against human A549 cells assessed as reduction in cell viability measured after 72 hrs by sulforhodamine B assay. Format: functional, cell-based. Particulars: A549, 72 h. On the technique in general: In SRB staining, fixed cells bind dye roughly in proportion to their protein.
The test system of test [3] is A549. Put plainly: Antiproliferative activity against human A549 cells assessed as cell viability at 50 uM measured after 72 hrs by sulforhodamine B assay. The test is classed as functional. Conditions: read-out: Activity.
The test system of test [4] is NCI-H157. The test is described as follows: Antiproliferative activity against human NCI-H157 cells assessed as cell viability at 50 uM measured after 72 hrs by sulforhodamine B assay. Format: functional. Conditions: read-out: Activity.
For another test, the system named is HL-60. The test is described as follows: Antiproliferative activity against human HL-60 cells assessed as reduction in cell viability incubated for 72 hrs by sulforhodamine B assay. The test is classed as functional, cell-based. Particulars: HL-60, 72 h.
A further test has as its system U-87 MG. Put plainly: Antiproliferative activity against human U-87MG cells assessed as reduction in cell viability incubated for 72 hrs by sulforhodamine B assay. Format: functional, cell-based, U-87MG ATCC.
A further test has as its system U-251. The test is described as follows: Antiproliferative activity against human U-251 cells assessed as reduction in cell viability incubated for 72 hrs by sulforhodamine B assay. The test is classed as functional, cell-based. Conditions: U-251, 72 h.

This note sets out measurements from ChEMBL document CHEMBL4732255, “Evaluation of the antiproliferative activity of 106 marine microbial metabolites against human lung cancer cells and potential antiproliferative mechanism of purpuride G” (Bioorg Med Chem Lett, 2021).

Broadly, the IC50 is the concentration that inhibits the measured activity by half.

Regarding `CO[C@@]1(C)N(C[C@@H](O)c2ccccc2)C(=O)c2cc3c4ccccc4n(C)c3c(=O)n21`, the IC50 was 22.9 µM in the test with NCI-H157 [1] and 44.3 µM with A549 [2]. In addition, the viability at 50 µM in the test on A549 [3] and with NCI-H157 [4] was less than 50% in each case.

In the case of `C=C[C@@]1(C)C=C(C)[C@@H]2[C@@H]3[C@H](Oc4ccc(cc4)C[C@]4(OC)C[C@H](C(=O)N4)C(=O)[C@H]31)[C@@H]1[C@@H](C)C[C@@H](C)C[C@]12C`, the values for the IC50 in the test with NCI-H157 [1] and in the test on A549 [2] were 19.6 µM and 25.2 µM, respectively. Further, the viability at 50 µM in the test on A549 [3] and in the test with NCI-H157 [4] was less than 50% each time.

For the molecule `Cc1cc(O)cc(Oc2cc(C)cc(O)c2)c1` [DIORCINOL], the IC50 was determined as 20.2 µM with NCI-H157 [1] and 31.6 µM with A549 [2]. The viability at 50 µM in the test with A549 [3] and in the test with NCI-H157 [4] was less than 50% in each case.

As to `Cn1c2ccccc2c2cc3n(c(=O)c21)[C@@](C)(O)N(CCc1ccccc1)C3=O`, the half-maximal inhibitory concentration (IC50) turned out to be 11 µM in the test on NCI-H157 [1] and 21.2 µM with A549 [2]. Besides, the viability at 50 µM with A549 [3] and in the test with NCI-H157 [4] was less than 50% each time.

Turning to `O=C1c2cc(O)cc(O)c2C(=O)c2c1cc1c(c2O)[C@@H]2CCO[C@@H]2O1`, the concentration for half-maximal inhibition (IC50) in the test with NCI-H157 [1] was 27 µM; with A549 [2] it was 45.9 µM. Besides, the viability at 50 µM in the test with A549 [3] and with NCI-H157 [4] was less than 50% in each case.

With `COc1cc(O)c2c(c1)C(=O)c1cc(C)cc(O)c1C2=O` [PHYSCION], the IC50 in the test on NCI-H157 [1] came out at 3 µM; in the test with A549 [2], 1.5 µM. Besides, the viability at 50 µM in the test with A549 [3] and in the test with NCI-H157 [4] was less than 50% in each case.

With `CO[C@@]1(C)N(CCc2ccccc2)C(=O)c2cc3c4ccccc4n(C)c3c(=O)n21`, the IC50 was determined as 9.8 µM with NCI-H157 [1] and 12.9 µM in the test on A549 [2]. Further, the viability at 50 µM in the test with A549 [3] and in the test on NCI-H157 [4] was less than 50% each time.

As to `C[C@H]1Oc2c(c(O)c3c4c(c(O)ccc24)OC3=O)C1(C)C`, the results for the IC50 in the test with NCI-H157 [1] and with A549 [2] were 41.9 µM and 42.9 µM, respectively. The viability at 50 µM in the test on A549 [3] and with NCI-H157 [4] was less than 50% in each case.

As for `CC(=O)c1nc(C(=O)NCCc2ccccc2)cc2c1[nH]c1ccccc12`, the IC50 in the test on NCI-H157 [1] was determined as 19.4 µM; in the test with A549 [2], 48.2 µM. For the same molecule, the viability at 50 µM in the test with A549 [3] and with NCI-H157 [4] was less than 50% in each case.

On to `CC(=O)c1nc(C(=O)NCCc2ccccc2)cc2c3ccccc3n(C)c12`, for which the IC50 came to 8.6 µM in the test with NCI-H157 [1] and 18.2 µM in the test on A549 [2]. Also, the viability at 50 µM with A549 [3] and in the test with NCI-H157 [4] was less than 50% each time.

Turning to `CC1=C[C@@]2(C)[C@@H]3C(=O)[C@]4(C[C@@H]2O)C[C@](O)(Cc2ccc(cc2)O[C@H]2[C@H]3[C@@H]1[C@]1(C)C[C@H](C)C[C@H](C)[C@@H]21)NC4=O`, in the test with HL-60, the IC50 was 7.4 µM.

Regarding `CC1=C[C@]2(C)C(=O)C[C@]34C[C@](O)(Cc5ccc(cc5)O[C@H]5[C@@H]([C@@H]1[C@]1(C)C[C@H](C)C[C@H](C)[C@@H]51)[C@H]2C3=O)NC4=O`, the IC50 in the test on U-87 MG is 1.06 µM; in the test with U-251, 1.28 µM.

With `CO[C@@]1(C)N(/C=C/c2ccccc2)C(=O)c2cc3c4ccccc4n(C)c3c(=O)n21`, the IC50 with NCI-H157 [1] worked out at 20.2 µM; with A549 [2] it was 21.6 µM. Further, the viability at 50 µM in the test with A549 [3] and in the test with NCI-H157 [4] was less than 50% throughout.

Take `CC1=C[C@]2(C)[C@H](O)C[C@]34C[C@](O)(Cc5ccc(cc5)O[C@H]5[C@H]([C@H]2C3=O)[C@@H]1[C@]1(C)C[C@H](C)C[C@H](C)[C@@H]51)NC4=O`: the IC50 in the test on HL-60 turned out to be 14.9 µM.

With `C=C[C@@]1(C)C=C(C)[C@@H]2[C@@H]3[C@H](Oc4ccc(cc4)C[C@@H]4C(=O)NC(=O)[C@@H]4C(=O)[C@H]31)[C@@H]1[C@@H](C)C[C@@H](C)C[C@]12C`, the IC50 in the test with NCI-H157 [1] worked out at 38.5 µM; in the test with A549 [2], 10.3 µM. Besides, the viability at 50 µM in the test with A549 [3] and with NCI-H157 [4] was less than 50% in each case.

Take `O=c1ncc2ncn([C@@H]3O[C@@H](CO)[C@H](O)[C@@H]3O)c2[nH]1`: the IC50 with NCI-H157 [1] amounted to 0.9 µM; in the test with A549 [2], 28.6 µM. The viability at 50 µM with A549 [3] and in the test with NCI-H157 [4] was less than 50% in each case.

On to `CO[C@@]1(C)N(/C=C/c2ccccc2)C(=O)C2=C[C@@]3(C(=O)N(C)c4ccccc43)C(=O)N21`, for which the concentration for half-maximal inhibition (IC50) in the test on NCI-H157 [1] was 8.1 µM; with A549 [2], 38.4 µM. Besides, the viability at 50 µM in the test on A549 [3] and in the test on NCI-H157 [4] was less than 50% throughout.

Take `CC(C)[C@@H](C)/C=C/[C@@H](C)[C@H]1CC[C@H]2C3=CC=C4C[C@@H](O)CC[C@]4(C)[C@H]3CC[C@]12C` [ERGOSTEROL]: the IC50 stood at 23.3 µM in the test on NCI-H157 [1] and 19.2 µM in the test with A549 [2]. In addition, the viability at 50 µM in the test with A549 [3] and in the test with NCI-H157 [4] was less than 50% in each case.

For the molecule `CO[C@@]1(C)N(/C=C/c2ccccc2)C(=O)c2cc3c([nH]c4ccccc43)c(=O)n21`, the 50% inhibitory concentration (IC50) in the test on NCI-H157 [1] came out at 15.1 µM; in the test on A549 [2], 12.7 µM. For the same molecule, the viability at 50 µM in the test on A549 [3] and in the test with NCI-H157 [4] was less than 50% each time.

In the case of `CO[C@@]1(C)N(/C=C\c2ccccc2)C(=O)c2cc3c4ccccc4n(C)c3c(=O)n21`, the figures for the half-maximal inhibitory concentration (IC50) in the test with NCI-H157 [1] and with A549 [2] were 7.2 µM and 10.6 µM, respectively. The viability at 50 µM with A549 [3] and in the test on NCI-H157 [4] was less than 50% in each case.

Consider `CO[C@@]12Cc3ccc(cc3)O[C@H]3[C@@H]4[C@H]5C(=O)[C@](C[C@@H](O)[C@@]5(C)C=C(C)[C@H]4[C@]4(C)C[C@H](C)C[C@H](C)[C@@H]34)(C1)C(=O)N2`, for which the values for the concentration for half-maximal inhibition (IC50) in the test with NCI-H157 [1] and in the test on A549 [2] were 17.8 µM and 13.2 µM, respectively. Also, the viability at 50 µM in the test with A549 [3] and with NCI-H157 [4] was less than 50% in each case.

Turning to `CC1=C([C@H](C)[C@@H](C)OC=O)C(=O)C2=C(C1=O)[C@@H]1O[C@H](C)[C@@H](C)c3c(C)c(O)cc(c31)O2` [CITRININ H1], the 50% inhibitory concentration (IC50) in the test on NCI-H157 [1] came out at 32.4 µM; in the test with A549 [2] it was 20.9 µM. Moreover, the viability at 50 µM with A549 [3] and in the test with NCI-H157 [4] was less than 50% in each case.

Regarding `CC1=C[C@@]2(C)[C@@H]3C(=O)[C@]4(C[C@@H]2O)C[C@@](O)(Cc2ccc(cc2)O[C@H]2[C@H]3[C@@H]1[C@]1(C)C[C@H](C)C[C@H](C)[C@@H]21)NC4=O`, the IC50 is 6.5 µM with NCI-H157 [1], 7.3 µM in the test with A549 [2], 12.4 µM in the test with U-87 MG and 22.8 µM with U-251. In addition, the viability at 50 µM in the test with A549 [3] and in the test with NCI-H157 [4] was less than 50% each time.

With `Cc1cc(O)c2c(c1)C(=O)c1cccc(O)c1C2=O` [CHRYSOPHANOL], the IC50 came to 2.7 µM in the test with NCI-H157 [1] and 5.7 µM with A549 [2]. For the same molecule, the viability at 50 µM with A549 [3] and in the test on NCI-H157 [4] was less than 50% each time.

For `C=C[C@@]1(C)C=C(C)[C@@H]2[C@@H]3[C@H](Oc4ccc(cc4)C[C@]45NC(=O)/C(=C(/O)[C@H]31)[C@H]4[C@@H]1C(=O)C(C)=C3[C@H](C)[C@@H](C)O[C@@]3(O)[C@]1(O)O5)[C@@H]1[C@@H](C)C[C@@H](C)C[C@]12C`, the IC50 with NCI-H157 [1] is 22.3 µM; with A549 [2], 12.3 µM. The viability at 50 µM in the test on A549 [3] and in the test on NCI-H157 [4] was less than 50% each time.
